Values joined by “and” are separate entries in the source; they are usually repeats but may differ in a detail not shown here. Identical values can stand only once.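 Protocol summary: plate cells (96-well), add compound at 5 concentrations, incubate 48 h, interpolate endpoints linearly. The concentration for 50% growth inhibition is given as GI50. TGI is the concentration that stops growth completely.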
Columns and labels:
Test in all cases: NCI tumour cell line growth inhibition, 48 h
[1] = test system: CCRF-CEM leukemia
[2] = test system: HCC-2998 colon
[3] = test system: OVCAR-3 ovarian
[4] = test system: MCF7 breast
[5] = test system: SR leukemia
[6] = test system: SK-MEL-2 melanoma
[7] = test system: SK-OV-3 ovarian
[8] = test system: MALME-3M melanoma
[9] = test system: M14 melanoma
[10] = test system: UACC-257 melanoma

Compound | GI50 [1] | TGI [1] | GI50 [2] | TGI [2] | GI50 [3] | TGI [3] | GI50 [4] | TGI [4] | GI50 [5] | TGI [5] | GI50 [6] | TGI [6] | GI50 [7] | TGI [7] | GI50 [8] | TGI [8] | GI50 [9] | TGI [9] | GI50 [10] | TGI [10]
COc1ccccc1Nc1ncc(-c2ccccc2)o1 | > 25000 nM | > 25 µM | > 25000 nM | > 25 µM | > 25000 nM | > 25 µM | > 25000 nM | > 25 µM | > 25000 nM | > 25 µM | > 25000 nM | > 25 µM | > 25000 nM | > 25 µM | > 25000 nM | > 25 µM | > 25000 nM | > 25 µM | > 25000 nM | > 25 µM
CSc1nc(NC2OC(COC(C)=O)C(OC(C)=O)C(OC(C)=O)C2OC(C)=O)c(N=CC=Nc2c(NC3OC(COC(C)=O)C(OC(C)=O)C(OC(C)=O)C3OC(C)=O)nc(SC)n(C)c2=O)c(=O)n1C (stereo not given) | > 50000 nM | > 100 µM | > 50000 nM | > 100 µM | > 50000 nM | > 50 µM | > 50000 nM | > 100 µM | > 50000 nM | > 100 µM | 25200 nM | 50 µM and > 96 µM | > 50000 nM | > 50 µM and 80.1 µM | > 50000 nM | > 100 µM | > 50000 nM | > 50 µM | > 50000 nM | > 100 µM
Cc1ccc(Nc2oc(-c3ccccc3)nc2[P+](c2ccccc2)(c2ccccc2)c2ccccc2)cc1 | 547 nM | 4.77 µM | 1030 nM | 2.4 µM | 299 nM | 1 µM | 433 nM | 1.98 µM | 698 nM | 2.44 µM | 625 nM | 1.85 µM | 1580 nM | 3.69 µM | 459 nM | 1.43 µM | 728 nM | 2.11 µM | 718 nM | 2.75 µM
C=COC(=O)N[C@H]1CCc2cc(OC)c(OC)c(OC)c2-c2ccc(SC)c(=O)cc21 | – | > 80.1 µM | – | 85.6 µM | – | 0.0311 µM | – | 59.8 µM | – | > 15.5 µM | – | 1.73 µM | – | 3.5 µM | – | > 100 µM | – | 14.7 µM | – | 77.7 µM
CN(C)C/C=C/C(=O)Nc1cc2c(Nc3ccc(F)c(Cl)c3)ncnc2cc1O[C@H]1CCOC1 | 1790 nM and 1530 nM | 9.17 µM and > 7.56 µM | 1140 nM and 1580 nM | 3.14 µM and > 9.22 µM | 232 nM and 229 nM | 2.54 µM and > 4.93 µM | 2230 nM and 2120 nM | 9.14 µM and > 10 µM | 3460 nM and 1260 nM | 13.2 µM and 6.5 µM | 1380 nM and 1510 nM | 2.93 µM and 4.13 µM | < 10 nM and 1.85 nM | 0.322 µM and 0.327 µM | 2100 nM and 1220 nM | 4.16 µM and 3.95 µM | 1390 nM and 1420 nM | 2.99 µM and 6.61 µM | 1460 nM and 3340 nM | 3.09 µM and > 10 µM
CN(C)C(=S)Sc1ccc([N+](=O)[O-])cc1[N+](=O)[O-] | 406 nM | > 43.6 µM | 6900 nM | 17.4 µM | 990 nM | 2.49 µM | 777 nM | 5.03 µM | 296 nM | 16.8 µM | 4210 nM | 9.86 µM | 12000 nM | 31.2 µM | 1380 nM | 3.17 µM | 2500 nM | 9.46 µM | 1750 nM | 4.9 µM
O=C(CNS(=O)(=O)Cc1ccccc1)NNc1ccccc1 | – | > 100 µM | – | > 100 µM | – | > 100 µM | – | > 100 µM | – | > 100 µM | – | > 100 µM | – | > 100 µM | – | > 100 µM | – | > 100 µM | – | > 100 µM
Nc1ccn(C2OC(CO)C(O)C2O)c(=O)n1 (stereo not given) | < 10.7 nM and 6.08 nM and 14.8 nM | – | 1690 nM | > 100 µM and 429 µM and > 500 µM | 3740 nM | > 100 µM and 500 µM and > 500 µM | 40.8 nM | > 100 µM and 434 µM and > 500 µM | – | > 100 µM and > 29.3 µM and 53.7 µM | – | > 500 µM | 2700 nM | > 500 µM | 74.1 nM | – | 103 nM and 285 nM and 976 nM | – | 14400 nM | > 500 µM
Cn1c(Nc2ccc(C(F)(F)F)cc2)nc2cc(Oc3ccnc(-c4ncc(C(F)(F)F)[nH]4)c3)ccc21 | 251 nM | 5.17 µM | 1250 nM | 13.1 µM | 1540 nM | 7.54 µM | 3380 nM | 14.4 µM | 45.7 nM | 13.2 µM | 38.7 nM | 0.728 µM | 38.5 nM | 19.1 µM | 28.4 nM | 0.154 µM | 33.8 nM | 1.33 µM | 131 nM | 0.977 µM
Nc1c(C(=O)c2ccccc2)cnn1-c1ccc(F)cc1 | > 25000 nM | > 25 µM | > 25000 nM | > 25 µM | > 25000 nM | > 25 µM | > 25000 nM | > 25 µM | > 25000 nM | > 25 µM | > 25000 nM | > 25 µM | > 25000 nM | > 25 µM | > 25000 nM | > 25 µM | > 25000 nM | > 25 µM | > 25000 nM | > 25 µM
Clc1nc(Cl)nc(Nc2cccc3ccccc23)n1 | 33400 nM | > 100 µM | > 100000 nM | > 100 µM | > 100000 nM | > 100 µM | 36300 nM | > 100 µM | 18300 nM | 48.3 µM | 80700 nM | > 100 µM | > 100000 nM | > 100 µM | 76900 nM | > 100 µM | > 100000 nM | > 100 µM | > 100000 nM | > 100 µM
